Molecules are shown by their SMILES. Values after ≈ are worked out from the molar mass of the structure shown. Like-named read-outs stand apart in the source and are kept apart here. Where a SMILES comes first, the peptide text is derived from it. Side-chain parts run from the residue outwards. [ ]: non-standard residue; d: D form. The star is where a group is joined. Lys(α,ε-(ArgTrp)2) = N=C(N)NCCC[C@H](N)C(=O)N[C@@H](Cc1c[nH]c2ccccc12)C(=O)NCCCC[C@H](NC(=O)[C@H](Cc1c[nH]c2ccccc12)NC(=O)[C@@H](N)CCCNC(=N)N)C(=O)*; βAla = NCCC(=O)O Where only a bound is given, the exact number is not on record here.

The values that follow come from patent US7902327B2, “Dendrimeric peptides, pharmaceutical compositions and methods of using the same” (New York University School of Medicine, priority 2007, dated 2011).

Series [1] is classed as cell-based, mouse. On the procedure:
The cells were grown in 96 well plates and a 100 μl aliquot of a three fold serial dilution of the peptides was dispensed into each well. Buffer alone was used as the positive control and H2O2 was used as the negative control. MTS […] was added to each well prior to incubation to visualize the cells. The cells were incubated for 24 hours and their absorbance were measured at λ=495 nm.

Series [2] in a line: dye leakage assay (calcein). The conditions noted are these: POPG vesicles. From the text: To confirm that the multivalent AMPs interact with and disrupt phospholipid bilayers, we measured the ability of dendrimer (RW)4D to induce leakage of calcein, entrapped within the interior of large unilamellar vesicles of model membrane POPG (1-Palmitoyl-2-Oleoyl-sn-Glycero-3-[Phospho-rac-(1-glycerol)]) with negatively charged head group. The leakage of vesicle contents to the AMPs was monitored by the release of calcein encapsulated in large unilamellar vesicles. The method of preparation of dye-encapsulated vesicles has been reported in detail (Torchilin and Weissig 2003). In short, large unilamellar POPG vesicles were prepared by reverse-phase evaporation. After evaporating the organic solvent, residue were hydrated with the calcein solution (100 mM) in buffer (10 mM Tris-HCl pH 7.4). The free calcein was removed by eluting through a Sephadex G-50 size-exclusion column in the same buffer. The leakage process was monitored by following the increase of calcein fluorescence intensity at 515 nm (excitation at 490 nm) after 20 μL of AMPs at different concentrations were added to 10 μL of vesicle solution mixed in 2 mL of TBS buffer. Complete leakage was achieved by addition of 100 uL of 20% Triton X-100 to the 2 ml solution, and the corresponding fluorescence intensity was used as 100% leakage for the calculation of leakage fraction.

In series [3] the test system is multi-drug resistant MRSA gram-positive bacteria. Description: killing of multi-drug resistant bacteria, one hour contact. The class given is cell-based.
Series [4] has as its system E. coli(D31) gram-negative bacteria. The series is described as above. The series is classed as cell-based.
Series [5] in a line: antibacterial activity under physiological conditions (90% human serum). The series is classed as cell-based. On the procedure:
In a further experiment, antibacterial activity under physiological conditions was tested. The MIC50 was determined in the presence of 90% human serum, respectively.

Series [6] has as its system Acineto Baumannii. Briefly: killing and growth inhibition of Acineto Baumannii. The series is classed as cell-based.
Series [7] relates to gram-positive MRSA. Description: LIVE/DEAD staining assay, membrane damage. The conditions noted are these: 1 hr incubation; (RW)4D 10 uM. The class given is cell-based.
The subject of series [8] is gram-negative A. baumannii. Description: LIVE/DEAD staining assay, membrane damage. To be noted: 1 hr incubation; (RW)4D 10 uM. The series is classed as cell-based.
For series [9], the system named is E. coli (RP437) biofilm. Description: biofilm formation in 96 well plates, crystal violet. The series is classed as cell-based. To be noted: 24 hours. The text has this:
The effect of dendrimers of the invention on E. coli biofilm formation was further examined and measured. The development of a bacterial biofilm allows for the bacteria to become more antibiotic resistant. […] Assay summary: E. coli (RP437) was used to form biofilms in 96 well plates with and without different concentrations of peptides.

Series [10] has as its system E. coli RP437 biofilm. Description: two-day biofilm on stainless steel coupons, Live/Dead staining. The series is classed as cell-based. The conditions noted are these: 25 μg/mL, 48 hours. On the procedure:
E. coli biofilm inhibition by (RW)4D was also studied on stainless steel coupons. Microscope images were taken after staining the two-day biofilms with Live/Dead staining solution. […] Assay summary: E. coli RP437 was used to form biofilms in a plastic dish with stainless steel coupons and different concentrations of peptides. After 48 hours incubation, coupon was soaked in NaCl buffer containing staining component in the dark for 15 mins.

For series [11], the system named is ampicillin- and streptomycin-resistant E. coli (D31).
Series [12] has as its system multi-drug resistant strain S. aureus.
In series [13] the test system is B. Subtilis (ATCC 6633). The conditions noted are these: ATCC 6633.
Series [14] deals with B. anthracis (32F2 Sterne).
Series [15] concerns E. faecalis (29212). To be noted: 29212.
Series [16] has as its system three other gram-positive bacteria.
In series [17] the test system is trypsin. To be noted: trypsin at high concentration, various time intervals up to 24 hrs.
For series [18], the system named is Multidrug-resistant gram-positive S. aureus. To be noted: over 250 generations.
Series [19] concerns gram-negative E. coli (D31). To be noted: over 250 generations.
Series [20] relates to E. coli RP437 biofilms. Description: biofilm assay on stainless steel coupons with LIVE/DEAD staining. To be noted: for Biofilm coefficients: Dead cells / Biofilm coefficients: Live cells / Biofilm coefficients: Total biofilms: 24 hours. The series is classed as cell-based. On the procedure: The stainless steel (S.S.) coupons were polished using a fine 3M SandBlaster sandpaper, then autoclaved for sterilization. […] For all the treatments, duplicate coupons were tested. To analyze the E. coli biofilms using fluorescence microscopy, the biofilms were stained with […] bacterial viability kit (Cat# L7012, Invitrogen Corporation, California). Each S.S. coupon was washed gently by dipping vertically in 0.85% NaCl buffer three times (change to fresh buffer after each dipping). Then, they were soaked in 1 mL of 0.85% NaCl buffer containing 3 μl of staining component A and B (1:4) in the dark for 15 mins. Images were taken by AXIO Imager.M1 (Carl Zeiss, German). Five images were taken for each sample. Data were obtained and are presented in Table 3, below, as well as in FIG. 5.

The subject of series [21] is E. coli RP437 biofilms. Description: CFU assay of biofilm inhibition. The series is classed as cell-based. To be noted: 25 μg/mL, 24 hours. The protocol: Twenty-four hour biofilms of E. coli RP437 were grown on stainless steel coupons in LB medium containing up to 100 μg/mL of the three antimicrobial peptides—dendrimer, hexamer, and octamer. CFU counts were used to determine the extent of inhibition. The procedure of the study is as follows.
Overnight cultures of E. coli RP437 grown in LB medium were used to inoculate 5 mL of LB supplemented with up to 100 μg/mL of each peptide and polished, sterile 316L stainless steel coupons (1.2 cm×0.6 cm×0.1 cm). The cultures were incubated at 37° C. for 24 hours. The coupons were then removed from the bacterial culture using sterile forceps and washed three times in 0.85% NaCl buffer and placed in round-bottom tubes containing 3 mL of fresh NaCl buffer. These were then sonicated for 1.5 minutes in a water bath. The NaCl buffer containing bacterial cells was serially diluted and 60 μL of 1000 and 5000 fold dilutions were plated on LB agar plates. The plates were incubated at 37° C. overnight. The number of CFUs for each sample was counted after incubation. The experiment was conducted in duplicate.

Series [22] has as its system fresh sheep erythrocytes. Briefly: hemolytic assay. The series is classed as cell-based. To be noted: sheep erythrocytes, 37° C., 30 minutes. On the procedure: Hemolytic activity of model peptides was assessed on fresh sheep erythrocytes (Fitzgerald Inc., Concord, Mass.). […] The resulting supernatant was diluted by a factor of 40 in distilled water. The absorbances of the supernatant at λ=540 nm (OD540) were measured in the UV Spectrophotometer. […] Hemolytic index (HI) was defined as HI═HD50/IC50.

Setting [23] is: mean over no, low and high salt.

As for `N=C(N)NCCC[C@H](N)C(=O)N[C@@H](Cc1c[nH]c2ccccc12)C(=O)NCCCC[C@H](NC(=O)[C@H](Cc1c[nH]c2ccccc12)NC(=O)[C@@H](N)CCCNC(=N)N)C(=O)NCCCC[C@H](NC(=O)[C@H](CCCCNC(=O)[C@H](Cc1c[nH]c2ccccc12)NC(=O)[C@@H](N)CCCNC(=N)N)NC(=O)[C@H](Cc1c[nH]c2ccccc12)NC(=O)[C@@H](N)CCCNC(=N)N)C(=O)NCCC(N)=O` [Den(RW)4D] (H-RWK([Trp-Arg])K(Lys(α,ε-(ArgTrp)2))[βAla]-NH2), in [1], the IC50 (in general, the midpoint of a concentration-inhibition curve) is approximately 1380 µg/mL (≈ 750 µM). The “concentration at which peptide caused 50% dye leakage” value in [2] was 0.5 µg/mL. In addition, the “decrease in bacteria remaining after contact” value in series [3] and in series [4] was 3 log throughout. Further, the “antimicrobial activity in the presence of human serum” value in [5] is recorded as “human serum cannot completely block the antimicrobial activity”. Besides, the “killing and growth inhibition” value in [6] was “can kill the bacteria and inhibit its growth at very low concentration”. Further, the “membrane damage / killing by Live/Dead staining” value in series [7] and in series [8] was “show damaged membranes” throughout. The “inhibition of biofilm formation” value in series [9] is reported as “exhibited inhibition of E. coli biofilm formation”. For the same compound, the “total biofilm formation on stainless steel coupons compared with blank control” value in series [10] was “significantly reduced”. The “increase in MIC50 value from no salt to high-salt condition” value in series [11] turned out to be 50%. Besides, the “MIC50 E. coli” value in series [11] (0 mM NaCl) was found to be 3.0 µg/mL (≈ 1.63 µM); in series [11] (75 mM NaCl), 3.9 µg/mL (≈ 2.12 µM); in [11] (150 mM NaCl), 4.5 µg/mL (≈ 2.44 µM). Further, the “mean MIC50 against E. coli” value in [11] (setting [23]) was 3.8 µg/mL. For the same compound, the “MIC50 S. aureus” value in series [12] (0 mM NaCl) came out at 10 µg/mL (≈ 5.43 µM); in series [12] (75 mM NaCl), 15 µg/mL (≈ 8.14 µM); in [12] (150 mM NaCl), 16 µg/mL (≈ 8.69 µM). Besides, the “mean MIC50 against S. aureus” value in series [12] (setting [23]) amounted to 13.6 µg/mL. The “MIC50 B. subtilis” value in [13] was 3.5 µg/mL (≈ 1.9 µM). For the same compound, the “MIC50 B. anthracis” value in series [14] turned out to be 13 µg/mL (≈ 7.06 µM). In addition, the “MIC50 E. faecalis” value in [15] is 5.5 µg/mL (≈ 2.99 µM). Besides, the “mean MIC50 against all test organisms” value in series [16] (three gram-positive bacteria) worked out at 7.4 µg/mL. The “inactivation of antibacterial activity by trypsin” value in series [17] is on record as “resistant to inactivation by trypsin”. For the same compound, the “development of resistance (MIC90)” value in series [18] and in series [19] was “did not show resistance” throughout.

For `N=C(N)NCCC[C@H](N)C(=O)N[C@@H](Cc1c[nH]c2ccccc12)C(=O)NCCCC[C@H](NC(=O)[C@H](Cc1c[nH]c2ccccc12)NC(=O)[C@@H](N)CCCNC(=N)N)C(=O)NCCCC[C@H](NC(=O)[C@H](CCCCNC(=O)[C@H](Cc1c[nH]c2ccccc12)NC(=O)[C@@H](N)CCCNC(=N)N)NC(=O)[C@H](Cc1c[nH]c2ccccc12)NC(=O)[C@@H](N)CCCNC(=N)N)C(=O)NCCC(N)=O` [Dendrimer] (H-RWK([Trp-Arg])K(Lys(α,ε-(ArgTrp)2))[βAla]-NH2; N-terminus and C-terminus assumed), in series [20] (25 μg/mL), the “Total biofilm formation compared with blank control (ANOVA)” value is “significantly reduced”, the “Biofilm coefficients: Dead cells” value is on record as 7.11% ± 1.93%, the “Biofilm coefficients: Live cells” value is recorded as 4.42% ± 2.30% and the “Biofilm coefficients: Total biofilms” value is 11.16% ± 3.09%. Besides, in [20] (50 μg/mL), the “Total biofilm formation compared with blank control (ANOVA)” value is recorded as “significantly reduced”, the “Biofilm coefficients: Dead cells” value is listed as 5.05% ± 1.47%, the “Biofilm coefficients: Live cells” value is 2.32% ± 1.12% and the “Biofilm coefficients: Total biofilms” value is on record as 7.06% ± 1.91%. Also, the “reduction of viable biofilm cell counts” value in series [21] was “ineffective”.

Take `CC[C@H](C)[C@H](N)C(=O)N[C@@H](CC(C)C)C(=O)N1CCC[C@H]1C(=O)N[C@@H](Cc1c[nH]c2ccccc12)C(=O)N[C@@H](CCCCN)C(=O)N[C@@H](Cc1c[nH]c2ccccc12)C(=O)N1CCC[C@H]1C(=O)N[C@@H](Cc1c[nH]c2ccccc12)C(=O)N[C@@H](Cc1c[nH]c2ccccc12)C(=O)N1CCC[C@H]1C(=O)N[C@@H](Cc1c[nH]c2ccccc12)C(=O)N[C@@H](CCCNC(=N)N)C(=O)N[C@@H](CCCNC(=N)N)C(N)=O` [Indolicidin, reference compound]: the “HD50 (peptide concentration corresponding to 50% hemolysis)” value in series [22] was 293 µg/mL. The “increase in MIC50 value from no salt to high-salt condition” value in series [11] (E. coli and S. aureus, 0 to 150 mM NaCl) was more than 100%. In addition, the “MIC50 B. subtilis” value in [13] was 1.0 µg/mL (≈ 0.525 µM). Moreover, the “MIC50 B. anthracis” value in [14] (32F2 Sterne) turned out to be 8.2 µg/mL (≈ 4.3 µM). Also, the “MIC50 E. faecalis” value in series [15] was found to be 1.6 µg/mL (≈ 0.839 µM). Besides, the “mean MIC50 against all test organisms” value in series [16] is 3.6 µg/mL.

In the case of `CN[C@H](CC(C)C)C(=O)N[C@H]1C(=O)N[C@@H](CC(N)=O)C(=O)N[C@H]2C(=O)N[C@H]3C(=O)N[C@H](C(=O)N[C@H](C(=O)O)c4cc(O)cc(O)c4-c4cc3ccc4O)[C@H](O)c3ccc(c(Cl)c3)Oc3cc2cc(c3O[C@@H]2O[C@H](CO)[C@@H](O)[C@H](O)[C@H]2O[C@H]2C[C@](C)(N)[C@H](O)[C@H](C)O2)Oc2ccc(cc2Cl)[C@H]1O` [vancomycin, reference compound], the “membrane damage / killing by Live/Dead staining” value in series [7] and in series [8] was “did not actively kill” in each case.
